The subject of one data set is BME-UV monolayer. Nature of the data set: Mannitol flux across BME-UV monolayer from Ap-to-BL side. It is filed as in vitro ADME, bovine. Conditions: for Effect on flux of mannitol across BME-UV monolayer (monolayer integrity): 200 ng/ml TNF-α.
For a further data set, the system named is bABCB1 mRNA. Description: bABCB1 mRNA expression by quantitative real-time RT-PCR in BME-UV cells. It is filed as cell-based, bovine. To be noted: 200 ng/ml TNF-α, 24 hours exposure, vs unexposed cells. (Quantitative PCR measures a nucleic acid by following its amplification.)
In data set [1] the test system is P-glycoprotein. Nature of the data set: Western blot of P-glycoprotein immunoreactive bands in BME-UV cells. It is filed as cell-based, bovine. To be noted: TNF-α 200 ng/ml. (In general: In western blotting, separated proteins are transferred to a membrane and probed.)
The target in data set [2] is P-glycoprotein (Bos taurus, UniProt A0A3Q1MB23). Description: Ap-to-BL flux of digoxin. It is filed as in vitro ADME, bovine. Conditions: TNF-α 200 ng/ml, 24 hours exposure; 0.05 μM [3H]-digoxin.
The subject of data set [3] is mammary epithelial monolayer (BME-UV). Conditions: exposure to TNF-α for 8 hours; cited from earlier work.

Where two headings read alike, the source gives them in different places. Marks after values point to notes of the source that are not given here.

This is an account of results in article PMC3034978 (Biopharmaceutics & drug disposition, 2010).

Sequence of P-glycoprotein (Bos taurus, UniProt A0A3Q1MB23) (A0A3Q1MB23 1-1267): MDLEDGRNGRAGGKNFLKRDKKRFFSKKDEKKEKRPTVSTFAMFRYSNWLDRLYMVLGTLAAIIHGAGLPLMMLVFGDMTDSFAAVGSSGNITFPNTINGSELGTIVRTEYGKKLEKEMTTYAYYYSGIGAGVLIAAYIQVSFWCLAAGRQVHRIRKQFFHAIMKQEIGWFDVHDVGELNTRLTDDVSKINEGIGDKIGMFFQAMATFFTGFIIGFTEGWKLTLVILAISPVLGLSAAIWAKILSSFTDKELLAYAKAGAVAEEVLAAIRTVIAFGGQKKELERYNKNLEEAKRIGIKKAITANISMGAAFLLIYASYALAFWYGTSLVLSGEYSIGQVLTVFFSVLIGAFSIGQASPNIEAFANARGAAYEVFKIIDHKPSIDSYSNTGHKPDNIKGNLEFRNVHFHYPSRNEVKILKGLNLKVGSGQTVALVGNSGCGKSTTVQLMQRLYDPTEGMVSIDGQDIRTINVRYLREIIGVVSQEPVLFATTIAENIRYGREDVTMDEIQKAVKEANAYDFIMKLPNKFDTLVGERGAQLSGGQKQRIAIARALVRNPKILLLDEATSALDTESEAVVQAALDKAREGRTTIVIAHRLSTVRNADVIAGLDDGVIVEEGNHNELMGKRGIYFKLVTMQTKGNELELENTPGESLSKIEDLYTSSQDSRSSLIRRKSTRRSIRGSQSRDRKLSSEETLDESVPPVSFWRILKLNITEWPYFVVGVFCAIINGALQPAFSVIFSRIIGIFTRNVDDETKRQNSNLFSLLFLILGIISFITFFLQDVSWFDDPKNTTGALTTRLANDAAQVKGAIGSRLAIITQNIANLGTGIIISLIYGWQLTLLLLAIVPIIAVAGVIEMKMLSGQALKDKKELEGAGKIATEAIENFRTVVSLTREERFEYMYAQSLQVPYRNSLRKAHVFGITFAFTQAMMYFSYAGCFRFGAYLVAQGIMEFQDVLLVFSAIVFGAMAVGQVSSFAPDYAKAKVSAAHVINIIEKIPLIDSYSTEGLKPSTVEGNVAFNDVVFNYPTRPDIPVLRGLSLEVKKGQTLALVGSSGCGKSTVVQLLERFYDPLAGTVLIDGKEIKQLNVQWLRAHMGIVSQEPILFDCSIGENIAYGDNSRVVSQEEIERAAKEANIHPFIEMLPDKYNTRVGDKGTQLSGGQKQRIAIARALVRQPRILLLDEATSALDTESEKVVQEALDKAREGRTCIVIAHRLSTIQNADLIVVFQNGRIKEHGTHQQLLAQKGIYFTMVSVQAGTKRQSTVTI

Consider `C[C@H]1O[C@@H](O[C@H]2[C@@H](O)C[C@H](O[C@H]3[C@@H](O)C[C@H](O[C@H]4CC[C@@]5(C)[C@H](CC[C@@H]6[C@@H]5C[C@@H](O)[C@]5(C)[C@@H](C7=CC(=O)OC7)CC[C@]65O)C4)O[C@@H]3C)O[C@@H]2C)C[C@H](O)[C@@H]1O` [digoxin], for which the “Intracellular content of digoxin” value in the data set with BME-UV cells (BME-UV cells exposed to TNF-α for 24 hours) was 4.6 ± 1.1 × 10^−4 nmol; in the data set with BME-UV cells (BME-UV cells exposed to TNF-α for 72 hrs), 3.0 ± 0.2 × 10^−4 nmol; in the data set with BME-UV cells (unexposed BME-UV cells), 6.3 ± 2.6 × 10^−4 nmol.

Consider `OC[C@@H](O)[C@@H](O)[C@H](O)[C@H](O)CO` [mannitol], for which the “Mannitol flux, Ap-to-BL” value was 15.5 × 10^−3 ^b nmol/cm^2/hr in the data set on BME-UV monolayer (BME-UV exposed to TNF-α 200 ng/ml for 24 hr (TNF-24H)); 14.1 × 10^−3 ^b nmol/cm^2/hr with BME-UV monolayer (BME-UV exposed to TNF-α 200 ng/ml for 72 hr (TNF-72H)); 9.6 × 10^−3 ^a nmol/cm^2/hr with BME-UV monolayer (BME-UV exposed to TNF-α 200 ng/ml for 120 hr (TNF-120H)); 6.5 × 10^−3 ^a nmol/cm^2/hr in the data set with BME-UV monolayer (Untreated BME-UV monolayer, 2 μM [14C]-mannitol). Moreover, the “Flux value of mannitol” value is listed as 15.5 ± 0.8 × 10^−6 μmol/cm^2 per hour with BME-UV monolayer (TNF-α exposed monolayers for 24 hours) and 6.5 ± 0.7 × 10^−6 μmol/cm^2 per hour in the data set on BME-UV monolayer (unexposed monolayers).

On to TNF-α, for which the “Effect on flux of mannitol across BME-UV monolayer (monolayer integrity)” value with BME-UV monolayer (24 and 72 hours exposure) is listed as “increased significantly”; in the data set on BME-UV monolayer (120 hours exposure), “indistinguishable from untreated”. In addition, the “Change in bABCB1 mRNA expression” value in the data set with bABCB1 mRNA was “significant increase”. Besides, the “Change in P-glycoprotein immunoreactive level” value in the data set on P-glycoprotein [1] (24 hours exposure) is on record as “significant increase”; with P-glycoprotein [1] (72 hours exposure), “maximum observed effect”; with P-glycoprotein [1] (120 hours exposure, lower than at 72 hours) it was “increased significantly”. In addition, the “Change in Ap-to-BL flux of digoxin” value on P-glycoprotein [2] is given as “significantly decreased”. For the same compound, the “Decrease in Rte value” in data set [3] is 30%.
